Each structure is given as a SMILES string.

The values that follow come from US12570638B2, “Fused imidazole derivatives as AHR antagonists” (Sail Biomedicines, Inc., priority 2020, dated 2026).

A short description of this data set: Plasma Protein Binding Determination with Ultracentrifugation Method. The class given is in vitro ADME. To be noted: human plasma, read-out: Human plasma protein binding (% bound). As to the method:
The frozen plasma (stored at −80° C.) was thawed in a 37° C. water bath, followed by centrifugation at 3,220 g for 10 minutes to remove clots. The supernatant was removed into a new tube as the spun plasma. The spun plasma was pre-warmed in a 37° C. water bath for 10 minutes. The stock solutions of test compounds were diluted to 200 μM in DMSO, and then spiked into the plasma. Duplicate samples were prepared. The final concentration of compound was 1.0 μM. The final concentration of organic solvent was 0.5%. Warfarin was used as positive control in the assay. 1.0 mL of the spiked plasma was transferred to a new balance ultracentrifuge tube. Samples were incubated at 37° C., 5% CO2 for 30 minutes. After incubation, the balance ultracentrifuge tubes were centrifuged at 600,000 g for 5.5 hours at 37° C. […]
Data Analysis: All calculations were carried out using Microsoft Excel. The concentrations of test compound in plasma samples and post-ultracentrifugation plasma was determined from peak areas. The percentages of test compound bound was calculated as follows: […]

Consider `Cn1ncnc1C(=O)Nc1ccc2nc(-c3ccccc3C(F)(F)F)[nH]c2c1` [Compound H, 1-methyl-N-(2-(2-(trifluoromethyl)phenyl)-1H-benzo[d]imidazol-6-yl)-1H-1,2,4-triazole-5-carboxamide], for which the fraction unbound at 30 min, 1 μM is below 0.25.
